Data from patent US9259411B2, “Neuronal circuit-dependent neuroprotection by interaction between nicotinic receptors” (priority 2006, dated 2016).

Legend:
[1] = biological target: α3β4 nAChRs (Homo sapiens, UniProt P30926+P32297); details: inhibits the function of α3β4 nAChRs; cited from earlier work
[2] = biological target: α4β2 nAChRs (Homo sapiens, UniProt P17787+P43681); details: inhibits the function of α4β2 nAChRs; cited from earlier work
[3] = system: Akt Ser473; assay: Western blot of phosphorylated Akt in CA1 of hippocampal slices; assay type: cell-based, rat; details: 1 μM DHβE alone, 20 min
Experimental: For immunoassays of phosphorylated proteins, in the initial experiments slices were incubated in the same conditions as for PS determination. Later, the slices were incubated by being submerged in a static chamber on culture insets (Millicell; Millipore, Billerica, Mass.) to avoid drying during timed removal of slices.
Slices were prepared and maintained as described above. Treatments started after 2 hr of incubation in ACSF. […] At the corresponding time, each slice was removed and the CA1 region microdissected, frozen on dry ice, and stored at −80° C. until assayed. […] Final detection was carried out with enhance chemiluminescence methodology (Pierce Supersignal West Dura) and the intensity of the signal measured in a gel documentation system (Versa Doc Model 1000; Bio-Rad). […] Normalization of the signal of the phosphokinase to the total amount of proteins, measured by densitometry of the stained membrane, was used as the relevant parameter, which was the level of activity of the kinase. This method was validated with several isolated cells and tissues and determined a linear relationship between the amount of total protein (as measured by densitometry) and total kinases (as measured by chemiluminescence) within the range of proteins employed in these experiments (4-12 μg total protein). […]

[4] = biological target: α3β4 (Homo sapiens, UniProt P30926+P32297); details: cited from earlier work
Sequence of α3β4 (P32297 32-505): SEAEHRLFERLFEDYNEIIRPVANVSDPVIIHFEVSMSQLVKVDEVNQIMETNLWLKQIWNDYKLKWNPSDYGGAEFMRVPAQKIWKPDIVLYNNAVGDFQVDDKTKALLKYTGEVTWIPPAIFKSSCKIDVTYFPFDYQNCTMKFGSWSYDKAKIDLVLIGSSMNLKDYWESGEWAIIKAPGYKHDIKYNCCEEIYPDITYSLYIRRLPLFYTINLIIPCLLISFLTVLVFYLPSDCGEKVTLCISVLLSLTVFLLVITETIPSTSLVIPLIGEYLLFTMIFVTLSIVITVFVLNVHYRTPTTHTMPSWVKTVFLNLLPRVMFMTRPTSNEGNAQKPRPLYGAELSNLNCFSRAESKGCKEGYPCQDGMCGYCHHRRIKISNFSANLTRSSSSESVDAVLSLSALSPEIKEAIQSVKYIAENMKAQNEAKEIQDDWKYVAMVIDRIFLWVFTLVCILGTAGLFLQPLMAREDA
Sequence of α3β4 (P30926 22-498): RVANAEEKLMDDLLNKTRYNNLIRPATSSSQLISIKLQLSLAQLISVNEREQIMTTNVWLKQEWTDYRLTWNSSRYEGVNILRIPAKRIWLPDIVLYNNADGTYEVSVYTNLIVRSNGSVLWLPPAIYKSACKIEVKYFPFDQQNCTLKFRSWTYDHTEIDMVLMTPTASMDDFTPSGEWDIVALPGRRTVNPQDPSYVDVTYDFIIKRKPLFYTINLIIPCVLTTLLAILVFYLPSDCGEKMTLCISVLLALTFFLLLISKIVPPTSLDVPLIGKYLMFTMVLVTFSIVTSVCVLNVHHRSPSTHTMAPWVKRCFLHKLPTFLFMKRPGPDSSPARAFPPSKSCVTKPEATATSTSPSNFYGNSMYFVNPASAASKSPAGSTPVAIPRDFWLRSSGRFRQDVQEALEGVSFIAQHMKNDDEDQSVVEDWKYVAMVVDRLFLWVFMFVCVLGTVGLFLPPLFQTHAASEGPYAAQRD

[5] = biological target: α7 (Homo sapiens, UniProt P36544); details: cited from earlier work
Sequence of α7 (P36544 23-502): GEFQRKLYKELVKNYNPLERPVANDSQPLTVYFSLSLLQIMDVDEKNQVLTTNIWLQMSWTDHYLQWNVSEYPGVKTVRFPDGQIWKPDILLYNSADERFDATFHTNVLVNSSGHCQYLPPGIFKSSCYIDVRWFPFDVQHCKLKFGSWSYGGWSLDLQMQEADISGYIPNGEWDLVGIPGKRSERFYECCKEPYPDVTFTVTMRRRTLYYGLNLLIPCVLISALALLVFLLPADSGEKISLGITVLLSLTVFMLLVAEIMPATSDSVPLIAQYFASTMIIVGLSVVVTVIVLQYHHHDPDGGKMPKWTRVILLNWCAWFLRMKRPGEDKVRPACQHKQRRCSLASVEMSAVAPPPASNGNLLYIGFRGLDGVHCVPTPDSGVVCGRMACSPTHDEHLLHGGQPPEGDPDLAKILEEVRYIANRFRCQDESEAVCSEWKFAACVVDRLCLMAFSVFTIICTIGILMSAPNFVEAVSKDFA

[6] = system: CA1 neurons of hippocampal slices; assay: Neuroprotection against NMDA excitotoxicity: recovery of population spikes in acute hippocampal slices; assay type: cell-based, rat; details: for Effect on the neuroprotection caused by the substance: 10 μM PD98059: main target ERK-1,2 kinase; for effect of nifedipine on the neuroprotection: 10 μM nifedipine; for effect of PD98059 on the neuroprotection: 50 μM PD98059
Experimental: Male Sprague-Dawley rats (120-200 g) were maintained and sacrificed according to standard procedures reviewed and approved by the Institutional Animal Care and Use Committee. […] Briefly, hippocampi were dissected over ice; transversal 400-μm-thick slices were cut with a manual slicer and immediately transferred to the incubation chamber, thus preserving the neurons in their native environment. The chamber consisted of a temperature-controlled bath surrounding an acrylic plate covered with nylon mesh; the plate was divided into three lanes with independent perfusion. […] C. A bipolar electrode placed in the stratum radiatum was used to stimulate the Shaffer collateral incoming fibers with a constant current for 0.2 msec. The resulting population spike (PS) was recorded in stratum pyramidale with a glass electrode filled with 2 M NaCl, having an impedance of 1-5 M.OMEGA.
About 30 slices from the hippocampi of two rats were distributed equally among three lanes of an incubation chamber. A maximum of seven slices were analyzed per lane for each individual experiment, and on average 21 slices per condition were tested for each experimental condition. […] Because the neurons are maintained in their native environment and in contact with other cells, stimulation with the appropriate stimulus can elicit a PS. One hour after dissection, each slice was stimulated with a stimulus twice the strength required to elicit a threshold PS. This initial response was recorded as PS area (msec×mV) and compared to the final response elicited by the same stimulus strength recorded from the same position after the experimental treatment was finished. The slices were washed for 1 hr with normal ACSF to eliminate lingering drugs and any short-lived effects. […] The percentage of the initial response remaining at the end of the experiment was used as a measure of electrophysiological recovery.
The areas of PSs (mV/msec) were acquired and analyzed with the Labman program. The data were statistically analyzed with SigmaStat v2.03 (SPSS, Chicago, Ill.). One-way analysis of variance (ANOVA) was used whenever the data were distributed normally. […] In these cases, the less powerful nonparametric Kruskal-Wallis one-way ANOVA on ranks was used. The post-hoc test used was the Student-Newman-Keuls test for normally distributed data and Dunn's test for data that was not normally distributed.

[7] = system: CA1 neurons of hippocampal slices; details: cited from earlier work; for effect of DHβE on the neuroprotection (reported): 1 μM DHβE, 10 nM MLA
[8] = biological target: α7 nAChRs (Rattus norvegicus, UniProt Q05941); details: against the α7 nAChRs; cited from earlier work
Sequence of α7 nAChRs (Q05941 23-502): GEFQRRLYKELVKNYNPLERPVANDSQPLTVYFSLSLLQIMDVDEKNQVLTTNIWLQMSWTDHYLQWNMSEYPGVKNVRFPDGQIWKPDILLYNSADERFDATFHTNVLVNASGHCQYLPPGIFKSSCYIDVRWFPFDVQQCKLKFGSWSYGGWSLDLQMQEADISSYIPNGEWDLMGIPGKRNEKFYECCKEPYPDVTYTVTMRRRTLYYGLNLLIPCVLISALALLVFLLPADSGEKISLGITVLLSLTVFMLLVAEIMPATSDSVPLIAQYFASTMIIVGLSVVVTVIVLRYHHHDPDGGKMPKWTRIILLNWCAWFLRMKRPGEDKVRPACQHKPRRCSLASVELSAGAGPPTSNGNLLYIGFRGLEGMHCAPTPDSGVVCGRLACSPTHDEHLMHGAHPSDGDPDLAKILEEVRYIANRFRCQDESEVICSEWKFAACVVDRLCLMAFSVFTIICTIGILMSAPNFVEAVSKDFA

[9] = biological target: NMDA receptors; details: against the NMDA receptors; cited from earlier work

Sequence of α4β2 nAChRs (P43681 29-627 limits assumed): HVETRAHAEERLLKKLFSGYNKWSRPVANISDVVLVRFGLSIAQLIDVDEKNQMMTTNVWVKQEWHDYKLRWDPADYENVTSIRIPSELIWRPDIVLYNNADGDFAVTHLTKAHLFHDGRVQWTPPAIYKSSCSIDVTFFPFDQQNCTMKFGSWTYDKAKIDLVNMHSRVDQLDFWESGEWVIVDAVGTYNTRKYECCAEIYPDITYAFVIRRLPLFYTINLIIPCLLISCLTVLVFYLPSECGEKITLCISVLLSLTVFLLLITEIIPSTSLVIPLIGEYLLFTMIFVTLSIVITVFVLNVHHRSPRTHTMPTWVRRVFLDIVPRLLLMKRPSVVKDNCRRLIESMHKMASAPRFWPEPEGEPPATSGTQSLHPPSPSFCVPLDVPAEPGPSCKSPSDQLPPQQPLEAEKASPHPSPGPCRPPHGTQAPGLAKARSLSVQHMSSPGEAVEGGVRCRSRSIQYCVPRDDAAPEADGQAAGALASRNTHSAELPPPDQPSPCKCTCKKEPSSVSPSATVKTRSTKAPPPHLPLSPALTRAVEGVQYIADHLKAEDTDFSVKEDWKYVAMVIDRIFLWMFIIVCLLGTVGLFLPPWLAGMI
Sequence of α4β2 nAChRs (P17787 26-502): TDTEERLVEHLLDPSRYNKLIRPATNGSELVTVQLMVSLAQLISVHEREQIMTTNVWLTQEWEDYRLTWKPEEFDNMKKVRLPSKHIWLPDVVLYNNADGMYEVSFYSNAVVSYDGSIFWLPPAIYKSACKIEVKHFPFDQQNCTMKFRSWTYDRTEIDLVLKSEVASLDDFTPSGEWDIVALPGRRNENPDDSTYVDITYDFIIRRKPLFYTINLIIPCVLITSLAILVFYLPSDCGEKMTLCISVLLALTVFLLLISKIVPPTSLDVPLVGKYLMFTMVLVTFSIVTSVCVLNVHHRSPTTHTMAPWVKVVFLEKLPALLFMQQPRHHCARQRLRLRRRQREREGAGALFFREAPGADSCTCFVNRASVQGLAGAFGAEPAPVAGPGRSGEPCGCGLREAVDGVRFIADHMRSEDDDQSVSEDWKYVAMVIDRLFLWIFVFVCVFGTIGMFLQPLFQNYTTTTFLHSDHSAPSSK
Sequence of α3β4 nAChRs (P32297 32-505): as the sequence (P32297 32-505) above
Sequence of α3β4 nAChRs (P30926 22-498): as the sequence (P30926 22-498) above

Q: For `CC1=CC(O)CC(C)(O)C=CC(C(C)C)CCC(C)=CCC1` [4R, (1S,2E,4R,6R,7E,11E)-cembra-2,7,11-triene-4,6-diol], which IC50 [1] is on record?
A: The IC50 was 2200 nM.

Q: What about the IC50 [2] of the same compound?
A: Its IC50 is 19.1 µM.

Q: Which Akt phosphorylation [3] does the source give for `CO[C@H]1CC=C2CCN3CCC4=C(CC(=O)OC4)[C@]23C1` [DHβE, Dihydro-Beta-erithroidine] here?
A: The Akt phosphorylation was “did not affect”.

Q: What about the Ki [4] of the same compound?
A: Its Ki is 218 µM.

Q: What about the Ki [5] of the same compound?
A: The Ki was 25 to 57 µM.

Q: For `CCN1C[C@]2(COC(=O)c3ccccc3N3C(=O)C[C@H](C)C3=O)CC[C@H](OC)[C@@]34[C@@H]5C[C@H]6[C@H](OC)[C@@H]5[C@](O)(C[C@@H]6OC)[C@@](O)([C@@H](OC)[C@H]23)[C@@H]14` [MLA, methyllycaconitine], which “Effect on the neuroprotection caused by the substance: 10 μM PD98059” value [6] is on record?
A: Its value is 0.

Q: What about the “effect of DHβE on the neuroprotection (reported)” value [7] of the same compound?
A: The value was “blocked”.

Q: And the “neuroprotection (reported)” value ([7]; literature report)?
A: The value was “neuroprotective”.

Q: Which “effect of DHβE on the neuroprotection” value ([6]; 1 μM DHβE, 2 μM 4R) does the source give for `CC12CC3CC(C)(C1)CC(N)(C3)C2` [Memantine, memantine] here?
A: Its value is “inhibited”.

Q: What about the “effect of nifedipine on the neuroprotection” value [6] of the same compound?
A: Its value is “blocked”.

Q: And the “effect of PD98059 on the neuroprotection” value ([6]; 2 μM 4R, 1 μM nicotine)?
A: Its value is “not inhibited”.

Q: What about the “shape of the dose-response curve for neuroprotection” value ([6]; FIGS. 20A-B) of the same compound?
A: The value was “bell-shaped”.

Q: What about the “concentrations of dose-dependent neuroprotection” value ([6]; effect decreases at higher concentrations) of the same compound?
A: Its value is “below 3 μM”.

Q: And the “effect of inhibitors of PI3-kinase on the neuroprotection” value ([6]; inhibitors of PI3-kinase)?
A: Its value is “blocked”.

Q: What about the “Effect on the neuroprotection caused by the substance: 10 μM PD98059” value [6] of the same compound?
A: Its value is 0.

Q: And the “Effect on the neuroprotection caused by the substance: 0.1 μM Ro31 -8220” value ([6]; main target PKC)?
A: The value was 0.

Q: What about the “effect of vesamicol on the neuroprotection” value ([6]; vesamicol) of the same compound?
A: Its value is “blocked”.

Q: What about the IC50 [8] of the same compound?
A: Its IC50 is 340 nM.

Q: And the IC50 [9]?
A: Its IC50 is 5.1 µM.

Q: With `CN1CCCC1c1cccnc1` (stereo not drawn) [Nicotine, nicotine] as the compound, how does the “effect of Ro-31-8220 on the neuroprotection” value ([6]; 100 nM Ro-31-8220, 2 μM 4R, 1 μM nicotine) read?
A: Its value is “did inhibit”.

Q: And the “effect of APV on the neuroprotection” value ([6]; 0.4 μM APV, 2:M 4R or 1:M nicotine)?
A: Its value is “only a nonsignificant decrement”.

Q: And the “effect of KT5720 on the neuroprotection” value ([6]; 0.5 μM KT5720, 2 μM 4R, 1 μM nicotine)?
A: Its value is “partially decreased”.

Q: What about the recovery ([6]; 1 μM during 1 hr followed by 0.5 mM NMDA) of the same compound?
A: The recovery was “more than 80%”.

Q: What about the “effect of KN-62 on the neuroprotection” value ([6]; 9 μM KN-62) of the same compound?
A: The value was “did not prevent a significant neuroprotection”.

Q: And the “effect of nifedipine on the neuroprotection” value [6]?
A: The value was “did not inhibit”.

Q: What about the “effect of DNQX on the neuroprotection” value ([6]; 50 μM DNQX, 2 μM 4R, 1 μM nicotine) of the same compound?
A: The value was “recovered significantly more activity”.

Q: And the “effect of PD98059 on the neuroprotection” value ([6]; 2 μM 4R, 1 μM nicotine)?
A: Its value is “annulled”.

Q: What about the “Effect on the neuroprotection caused by the substance: 9 μMKN-62” value ([6]; main target CaM kinases) of the same compound?
A: The value was 0.

Q: What about the “Effect on the neuroprotection caused by the substance: 10 μM Nifedipine” value ([6]; main target L-type VGCC) of the same compound?
A: The value was 0.

Q: And the “Effect on the neuroprotection caused by the substance: 4 μMAPV” value ([6]; main target NMDA receptors)?
A: The value was 0.

Q: And the “Effect on the neuroprotection caused by the substance: 50 μM Vesarnicol” value ([6]; main target Synaptic ACh release)?
A: The value was 0.

Q: And the “effect of DHβE on the neuroprotection (reported)” value [7]?
A: Its value is “blocked”.

Q: With `Cn1cc(C2=C(c3ccc(Cl)cc3Cl)C(=O)NC2=O)c2ccccc21` [SB 216763] as the compound, how does the neuroprotection ([6]; 100 μM applied 1 hr before or after 0.5 mM NMDA, n=21) read?
A: The neuroprotection was “neuroprotective only when applied after NMDA”.
